# Data taken from patent publication US9789044B2, “Compounds and methods for repelling blood-feeding arthropods and deterring their landing and feeding” (SCOTTS CANADA LTD, priority 2008, dated 2017).
# How the values were obtained:
# [1] = test system: Aedes aegypti; conditions: by itself or in combination with an adjuvant; cited from earlier work
# [2] = test system: Aedes aegypti; assay: General bioassay: treated human forearm in cage with host-seeking female mosquitoes, complete protection time (modified WHO 1996 protocol); assay type: in vivo; conditions: 10% formulation in mineral oil, 1.5 mg (total composition) per cm^2 on human forearm skin
# Protocol: A black-eyed Liverpool strain of Aedes. aegypti was obtained from Dr. Carl Lowenberger, Simon Fraser University (SFU). Insects were reared under standardized conditions (60-70% relative humidity, 26-28° C., 14 h light:10 h dark photoperiod) in SFU's insectary. Neonate larvae that hatched in glass dishes of sterilized hypoxic water were transferred to trays of distilled water provisioned with Nutrafin® Basix Staple Food fish diet. Pupae were collected daily and separated by sex, and 15 females and 10 males were placed in a paper cup (7.5 cm diameter, 8.5 cm high) with a mesh lid. Emergent adults were fed a 10% (w/v) sucrose solution via braided cotton dental rolls. Arm-fed gravid females were offered water-containing paper cups, lined with paper-towel as an oviposition substrate. Candidate repellents and deterrents were bioassayed according to a modified protocol from the World Health Organization (1996). At least 1 hour prior to each bioassay, 75 host-seeking non blood-fed, nulliparous, 5- to 8-day-old female Aedes aegypti were placed into a wood-framed cage (26.5 cm on each side and 42.5 cm high) with a wooden floor, screened mesh sides and top, and a clear acrylic front fitted with a cotton stockinette sleeve (10 cm diameter). […] The time elapsed from experiment initiation to first bite was recorded as deterrent failure or complete protection time. […]
# [3] = test system: Culex quinquefasciatus; conditions: by itself or in combination with an adjuvant; cited from earlier work
# [4] = test system: mosquitoes; conditions: in vivo; cited from earlier work
# [5] = test system: Anopheles gambiae; conditions: by itself or in combination with an adjuvant; cited from earlier work
structure (smiles),measurement,setting,value
C=CCSCCCCCCCCO [8-allylsulfanyl-1-octanol],"deterring biting, effectiveness relative to DEET",[1],more effective than DEET
same,average duration of protection from bites by Aedes aegypti,"[2]; Experiments 1-6, 3-4 replicates",123 min
same,"deterring biting, effectiveness relative to DEET",[3],more effective than DEET
same,repellency to mosquitoes,[4],repellent
same,"deterring biting, effectiveness relative to DEET",[5],more effective than DEET
C=CCSCCCCCCC(C)O (centres unmarked) [8-allylsulfanyloctan-2-ol],repellency to mosquitoes,[4],repellent
C=CCSCCCCCCCCCO [9-allylsulfanylnonan-1-ol],repellency to mosquitoes,[4],repellent
"C=CCSCCCCCCCC(=O)N(CC)CC [(N,N)-diethyl-8-allylsulfanyl-octanamide]",average duration of protection from bites by Aedes aegypti,"[2]; Experiment 7, 4 replicates",156 min
